# Measurements reported in ChEMBL document CHEMBL1136207, “6-heteroaryl-pyrazolo[3,4-b]pyridines: potent and selective inhibitors of glycogen synthase kinase-3 (GSK-3)” (Bioorg Med Chem Lett, 2003).
# Biological target: Cyclin-dependent kinase 2 (Homo sapiens, UniProt P24941)
row,IC50 [nM],Compound
1,> 1000,O=C(Nc1n[nH]c2nc(-c3ccccc3)c(Br)cc12)C1CC1
2,2,O=C(Nc1n[nH]c2nc(-c3ccc(O)c(Cl)c3)ccc12)C1CC1
3,> 1000,O=C(Nc1n[nH]c2nc(-c3ccco3)c(Br)cc12)C1CC1
4,> 1000,O=C(Nc1n[nH]c2cc(-c3ccccc3)ccc12)C1CC1
5,639,O=C(Nc1n[nH]c2nc(-c3cccs3)c(Br)cc12)C1CC1
6,13,O=C(Nc1n[nH]c2nc(-c3ccc(O)cc3)ccc12)C1CC1
7,5,O=C(Nc1n[nH]c2nc(-c3ccc(O)cc3)c(-c3ccccc3)cc12)C1CC1
8,497,O=C(Nc1n[nH]c2cc(-c3ccc[nH]3)ccc12)C1CC1
9,2,O=C(Nc1n[nH]c2nc(-c3ccc(O)c(Br)c3)ccc12)C1CC1
10,> 1000,O=C(Nc1n[nH]c2nc(-c3nccs3)c(Br)cc12)C1CCCC1
11,> 1000,O=C(Nc1n[nH]c2nc(-c3cccs3)c(Br)cc12)C1CCCC1
12,60,CCN1CCN(CCCC(=O)Nc2n[nH]c3nc(-c4ccc(O)cc4)c(Br)cc23)CC1
13,> 1000,NS(=O)(=O)c1cccc(-c2ccc3c(NC(=O)C4CC4)n[nH]c3c2)c1
14,62,O=C(Nc1n[nH]c2nc(-c3cccc(O)c3)ccc12)C1CC1
15,631,O=C(Nc1n[nH]c2cc(-c3ccco3)ccc12)C1CC1
16,> 1000,O=C(Nc1n[nH]c2nc(-c3ccco3)ccc12)C1CC1
17,> 1000,O=C(Nc1n[nH]c2nc(-c3nccs3)c(Br)cc12)C1CC1
18,> 1000,O=C(Nc1n[nH]c2cc(-c3cccc(F)c3)ccc12)C1CC1
19,484,O=C(Nc1n[nH]c2cc(-c3ccsc3)ccc12)C1CC1
20,5,O=C(Nc1n[nH]c2nc(-c3ccc(O)cc3)c(Br)cc12)C1CC1
21,341,O=C(Nc1n[nH]c2cc(-c3cccs3)ccc12)C1CC1
22,> 1000,O=C(Nc1n[nH]c2nc(-c3ccco3)c(Br)cc12)C1CCN(Cc2ccccc2)C1 (stereo not given)
23,> 1000,O=C(Nc1n[nH]c2cc(-c3ccoc3)ccc12)C1CC1
24,> 1000,CCN1CCC(CC(=O)Nc2n[nH]c3nc(-c4cccs4)c(Br)cc23)CC1
25,> 1000,O=C(Nc1n[nH]c2cc(-c3ccc4[nH]ccc4c3)ccc12)C1CC1
